# Assay results reported in US11266609B2, “Bacitracin and/or daptomycin combined with cannabidiol for treatment of bacterial infections” (priority 2017, dated 2022).
# Tests used:
# MRSA USA300 FPR3757 = assay: microbe, parasite or virus in culture; assay type: cell-based, Staphylococcus aureus
# Experimental: (§1) The resistant bacterium MRSA USA300 FPR3757 (USA300) was the main used bacterium throughout this study. MRSA was grown in Brain Heart Infusion (BHI) or Müeller Hinton (MH) media on plate or in liquid cultures with agitation at 37° C.
# (§2) An ON culture was made by inoculating a bacterial colony in either 5 mL of MH or BHI and incubating at 37° C. with agitation. The antibiotic of interest was added to a row of a sterile 96-well plate (VWR) and a serial dilution was made down the rows containing 50 μL of MH or BHI media in each well, resulting in 2-fold dilution for each row. The ON culture was diluted to OD625 at approximately 1.0 followed by a 1:100 dilution to approximately OD625=0.01 of which 50 μL was added to each well to a final volume of 100 μL. The 96-well plate was incubated at 37° C. with shaking at 225 rpm for approximately 18-24 hours. Presence and absence of growth were determined by visual appearance.
# B) The other screen was based on fractional inhibitory concentration (FIC) index.
# MRSA USA300 = assay: Micro dilution growth experiments using oCelloScope, CBD combined with antibiotics (FIG. 1); assay type: cell-based, Staphylococcus aureus; conditions: combination with CBD 1-2 μg/mL; bacitracin 16, daptomycin 4, tetracycline 16, fosfomycin 16, dicloxacillin 0.0625, chlorhexidine 0.25, vancomycin 0.5 μg/mL (FIG. 1)
# Experimental: BCA: Background corrected absorption. ? Growth control, ? CBD, -▴- Antibiotic, ? Combination.
# as §1
# An ON culture was made by inoculating a bacterial colony in either 5 mL of MH or BHI at incubated at 37° C. with agitation. 25 μL of specific concentrations of the antibiotic and cannabinoid to be tested was added to the desired wells of a sterile 96-well plate (Thermo Scientific). 25 μL of MH or BHI media was added to the wells only containing one of the two compounds tested. The bacterial ON culture was diluted to a final OD600 nm of 0.005 and 50 μL was dispensed into each well to a final volume of 100 μL. To decrease evaporation, 2 mL of pre-heated water was added to the corners of the 96-well plate containing cavities. The plate was placed in the oCelloScope inside an incubator at 37° C. Illumination level and focus was adjusted for each well and the growth was measured for approximately 25 hours. Measurements were performed every half an hour for the first half of the time and every hour for the last half using the UniExplorer software. Data retrieved was given in Background corrected absorption (BCA), formerly known as pixel histogram summation (PHS), an algorithm enabling determination of bacterial growth kinetics resulting from images taken with the oCelloScope camera.
# A) A screen was performed using the Philips oCelloScope enabling measurements of bacterial growth in presence or absence of either cannabidiol alone or in combination with an antibiotic or antimicrobial, through a 3D scanning system in 96-well plates.
# E. faecalis (16-7418) = assay: microbe, parasite or virus in culture; assay type: cell-based, Enterococcus faecalis; conditions: Enterococcus faecalis; E. faecalis (16-7418); read-out: MIC
# Experimental: (§3) Additional bacteria Enterococcus faecalis (13-327129), Enterococcus faecalis (16-7418), Methicillin-resistant Staphylococcus epidermidis (933010 3F-16 b4), Listeria monocytogenes EGD, Pseudomonas aeruginosa (PA01), Salmonella typhimurium (14028), Klepsiella pneumoniae (CAS55), Vibrio cholerae (A1522), and Escherichia coli (UTI89) were either grown in BHI or Lysogeny broth (LB) media.
# as §2, with “appearance. FIC index was calculated as follows (Alam M T et al. Antibacterial activity of different organic extracts of Achyranthes aspera and Cassia alata. J Sci Res. 2009).” for “appearance.”
# (§4) To study the bacterial spectrum of the combination, CBD and bacitracin growth measurements of other Gram-positive bacteria tests on Enterococcus faecalis, an MRSE strain and a strain of Listeria monocytogenes were performed as described in Example 1.
# (§5) The MIC for bacitracin and CBD and the respective FIC values are visualized in table 2 for the Gram-positive bacteria and are calculated based on two biological replicates.
# E. faecalis (13-327129) = assay: microbe, parasite or virus in culture; assay type: cell-based, Enterococcus faecalis; conditions: Enterococcus faecalis; E. faecalis (13-327129); read-out: MIC
# Experimental: as §3
# as §2, with “appearance. FIC index was calculated as follows (Alam M T et al. Antibacterial activity of different organic extracts of Achyranthes aspera and Cassia alata. J Sci Res. 2009).” for “appearance.”
# as §4, §5
# MRSE (933010 3F-16 b4) = assay: microbe, parasite or virus in culture; assay type: cell-based, Methicillin-resistant Staphylococcus epidermidis; conditions: Staphylococcus epidermidis, MRSE
# Experimental: as §3
# as §2, with “appearance. FIC index was calculated as follows (Alam M T et al. Antibacterial activity of different organic extracts of Achyranthes aspera and Cassia alata. J Sci Res. 2009).” for “appearance.”
# as §4, §5
# Escherichia coli (UTI89) = assay: MIC, Gram-negative bacteria; assay type: cell-based; conditions: above tested concentrations
# Experimental: as §3
# as §2, with “appearance. FIC index was calculated as follows (Alam M T et al. Antibacterial activity of different organic extracts of Achyranthes aspera and Cassia alata. J Sci Res. 2009).” for “appearance.”
# (§6) To further assess the spectrum of use for the combination of CBD and bacitracin, growth of Gram-negative bacteria upon treatment was measured as well as described in Example 1.
# (§7) The Gram-negative bacteria tested were strains of Pseudomonas aeruginosa, Salmonella typhimurium, Klepsiella pneumoniae, Vibrio cholera, and Escherichia coli. MIC for CBD and bacitracin in the Gram-negative bacteria are visualized in table 3, and were both above tested concentrations.
# [1] = system: Pseudomonas aeruginosa (PA01); assay: MIC, Gram-negative bacteria; assay type: cell-based; conditions: above tested concentrations
# Experimental: as §3
# as §2, with “appearance. FIC index was calculated as follows (Alam M T et al. Antibacterial activity of different organic extracts of Achyranthes aspera and Cassia alata. J Sci Res. 2009).” for “appearance.”
# as §6, §7
# [2] = system: Salmonella typhimurium (14028); assay: MIC, Gram-negative bacteria; assay type: cell-based; conditions: Salmonella enterica, above tested concentrations
# Experimental: as §3
# as §2, with “appearance. FIC index was calculated as follows (Alam M T et al. Antibacterial activity of different organic extracts of Achyranthes aspera and Cassia alata. J Sci Res. 2009).” for “appearance.”
# as §6, §7
# [3] = system: Klepsiella pneumoniae (CAS55); assay: MIC, Gram-negative bacteria; assay type: cell-based; conditions: above tested concentrations
# Experimental: as §3
# as §2, with “appearance. FIC index was calculated as follows (Alam M T et al. Antibacterial activity of different organic extracts of Achyranthes aspera and Cassia alata. J Sci Res. 2009).” for “appearance.”
# as §6, §7
# L. monocytogenes EGD = assay: microbe, parasite or virus in culture; assay type: cell-based, Listeria monocytogenes; conditions: Listeria monocytogenes; L. monocytogenes EGD; read-out: MIC
# Experimental: as §3
# as §2, with “appearance. FIC index was calculated as follows (Alam M T et al. Antibacterial activity of different organic extracts of Achyranthes aspera and Cassia alata. J Sci Res. 2009).” for “appearance.”
# as §4, §5
# Vibrio cholerae (A1522) = assay: microbe, parasite or virus in culture; assay type: cell-based; conditions: Vibrio cholerae
# Experimental: as §3
# as §2, with “The 96-well plate was incubated at 37° C. with shaking at 225 rpm for approximately 18-24 hours.” left out, “appearance. FIC index was calculated as follows (Alam M T et al. Antibacterial activity of different organic extracts of Achyranthes aspera and Cassia alata. J Sci Res. 2009).” for “appearance.”
# To further assess the spectrum of use for the combination of CBD and bacitracin, growth of Gram-negative bacteria upon treatment was measured as well as described in Example 1. […]
# [4] = system: Gram-positive bacteria including methicillin-resistant Staphylococcus aureus (MRSA); conditions: particularly against Gram-positive bacteria including MRSA; cited from earlier work
# [5] = molecular target: T1, bacterial undecaprenyl pyrophosphate (UPP) synthase (Staphylococcus aureus, UniProt P60477); conditions: The Journal of Antibiotics 69, 798-805 (2016); cited from earlier work
# T1 sequence (P60477 1-256): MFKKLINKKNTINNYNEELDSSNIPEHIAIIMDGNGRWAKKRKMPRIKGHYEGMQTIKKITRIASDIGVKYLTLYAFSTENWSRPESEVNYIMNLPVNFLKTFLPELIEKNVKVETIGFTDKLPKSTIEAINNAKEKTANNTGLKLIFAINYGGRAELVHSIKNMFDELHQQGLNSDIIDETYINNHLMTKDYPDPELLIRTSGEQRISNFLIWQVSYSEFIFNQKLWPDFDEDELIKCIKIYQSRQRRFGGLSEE
# [6] = USA300, Table 4, unit not given
smiles,measurement,setting,value
"CCCCCc1cc(O)c2c(c1)OC(C)(CCC=C(C)C)C=C2 (stereo not drawn) [Cannabichromene (CBC), Cannabichromene]",FIC index (with bacitracin),MRSA USA300 FPR3757; USA300,0.63
same,FIC index (with daptomycin),MRSA USA300 FPR3757; USA300,0.63
same,MIC,MRSA USA300 FPR3757; [6],4
Cc1onc(-c2c(Cl)cccc2Cl)c1C(=O)N[C@@H]1C(=O)N2[C@@H]1SC(C)(C)[C@@H]2C(=O)O [Dicloxacillin],synergistic potential in growth curves,MRSA USA300,no synergistic potential
same,MIC,MRSA USA300 FPR3757; Staphylococcus aureus,0.25 µg/mL
same,FIC Index,"MRSA USA300 FPR3757; WT USA300, combination of cannabidiol with the respective antibiotic, synergy <= 0.5, no interaction 0.5-4.0, antagonism > 4",2
"C=C(C)[C@@H]1CCC(C)=C[C@H]1c1c(O)cc(CCCCC)cc1O [Cannabidiol (CBD), Cannabidiol]",MIC,E. faecalis (16-7418),16 µg/mL
same,MIC,E. faecalis (13-327129),16 µg/mL
same,MIC,MRSE (933010 3F-16 b4),4 µg/mL
same,MIC,Escherichia coli (UTI89),> 128 µg/mL
same,MIC,[1],> 128 µg/mL
same,MIC,[2],> 128 µg/mL
same,MIC,[3],> 128 µg/mL
same,MIC,L. monocytogenes EGD,4 µg/mL
same,MIC,Vibrio cholerae (A1522),> 128 µg/mL
same,MIC,"MRSA USA300 FPR3757; MRSA USA300 FPR3757, Table 2, two biological replicates",4 µg/mL
same,MIC,MRSA USA300 FPR3757; Staphylococcus aureus,4 µg/mL
COc1cc(O)c2c(O)c3c(c4c2c1C1(C4)C(C)=CCCC1(C)C)C(O)C1(O)CC(=O)C(C(C)=O)=C(O)C1(O)C3=O (stereo not drawn) [Spirohexaline],antimicrobial activity,[4],showed antimicrobial activity
same,IC50,[5],9 µM
CCCCCCCCCC(=O)N[C@@H](Cc1c[nH]c2ccccc12)C(=O)N[C@H](CC(N)=O)C(=O)N[C@@H](CC(=O)O)C(=O)N[C@@H]1C(=O)NCC(=O)N[C@@H](CCCN)C(=O)N[C@@H](CC(=O)O)C(=O)N[C@H](C)C(=O)N[C@@H](CC(=O)O)C(=O)NCC(=O)N[C@H](CO)C(=O)N[C@@H]([C@H](C)CC(=O)O)C(=O)N[C@@H](CC(=O)c2ccccc2N)C(=O)O[C@@H]1C [Daptomycin],synergistic potential in growth curves,MRSA USA300,to some degree
same,MIC,MRSA USA300 FPR3757; USA300,16 µg/mL
"CCCCCc1cc(O)c(C/C=C(\C)CCC=C(C)C)c(O)c1 [Cannabigerol (CBG), Cannabigerol]",FIC index (with bacitracin),MRSA USA300 FPR3757; USA300,0.88
same,FIC index (with daptomycin),MRSA USA300 FPR3757; USA300,1.0
same,MIC,MRSA USA300 FPR3757; [6],4
